Laboratory results as given in patent US8153784B2, “Imaging of enzyme activity” (The General Hospital Corporation, priority 2004, dated 2012).
One block for each compound: values may come before it.

Key:
[1] = molecular target: T1, human MPO embedded in Matrigel (Homo sapiens, UniProt P05164); assay: MPO/Matrigel implant mouse model, T1-weighted MR imaging; assay type: in vivo; settings: mice, right MPO/Matrigel vs left control, 1.5 T
T1 construct: purchased BioDesign, Inc
T1 sequence (P05164 49-745): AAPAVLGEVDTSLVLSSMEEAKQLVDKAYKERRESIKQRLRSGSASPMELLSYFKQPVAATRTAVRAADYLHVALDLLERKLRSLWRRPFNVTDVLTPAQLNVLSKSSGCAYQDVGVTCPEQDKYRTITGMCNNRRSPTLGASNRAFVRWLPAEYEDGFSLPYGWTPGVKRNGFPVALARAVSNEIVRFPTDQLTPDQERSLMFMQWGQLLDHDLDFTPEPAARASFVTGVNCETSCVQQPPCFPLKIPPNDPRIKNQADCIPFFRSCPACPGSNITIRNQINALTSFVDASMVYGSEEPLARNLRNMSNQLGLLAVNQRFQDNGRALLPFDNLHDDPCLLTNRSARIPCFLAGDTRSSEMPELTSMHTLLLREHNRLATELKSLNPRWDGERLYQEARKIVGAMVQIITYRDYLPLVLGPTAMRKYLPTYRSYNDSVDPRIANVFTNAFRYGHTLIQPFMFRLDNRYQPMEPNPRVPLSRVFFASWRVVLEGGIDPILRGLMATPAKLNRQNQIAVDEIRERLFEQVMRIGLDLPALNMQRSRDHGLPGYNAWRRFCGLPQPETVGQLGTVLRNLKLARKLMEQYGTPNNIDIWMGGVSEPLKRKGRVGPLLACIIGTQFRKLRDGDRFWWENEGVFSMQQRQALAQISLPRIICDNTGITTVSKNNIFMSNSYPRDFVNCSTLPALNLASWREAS
Procedure: To evaluate the monomeric substrates in vivo, we devised a mouse model that harbored 400 μL of Matrigel basement membrane matrix gel mixed 1:1 by volume with a solution containing 15 U of human MPO and glucose oxidase (as a source of hydrogen peroxide) that was injected into the right flank of the mouse. The left flank was injected with the enzyme-free Matrigel mixture. We subsequently performed T1-weighted MR imaging after the intravenous injection of Gd-DTPA-diSer substrate at the dose of […].
(§1) The MR imaging experiments were performed on a 1.5 T GE Excite scanner and a 4.7 T Bruker Pharmascan scanner. For all MR imaging experiments, precontrast T2-(TR=2000, TE=100, ETL=8, NEX=4, fast spin echo sequence) and T1-weighted images (TR=500, TE=11, NEX=4, spin echo sequence) with fat saturation were initially performed to locate the gels or area of inflammation. The substrates (0.3 mmol/kg) were subsequently injected via the tail vein of the mouse. The mouse was immediately imaged after the injection of the contrast agent using multiple T1-weighted sequences with fat saturation for at least 3 hours.
Ten-week old C57BL6 male mice were obtained from Jackson Laboratories. A total of 22 mice were used for the study. • 1. MPO/Matrigel imaging experiments: Matrigel™ (Beckton-Dickinson), a […] basement membrane matrix gel was used to immobilize human MPO and glucose oxidase (to supply H2O2 required for detecting MPO oxidative activity, Calbiochem). This was chosen to reflect deposits of human MPO in inflamed tissue in a mouse model. 400 μL of a mixture of Matrigel™ and MEM (Cambrex) was injected slowly into the thighs of each mouse one hour prior to imaging. The right thigh mixture also contained 15 U of MPO and 4 U of glucose oxidase (Calbiochem), while the left thigh mixture contained no enzyme and thus serves as an internal control. A total of 15 mice were used (3 mice each for 5-HT-DOTA(Gd), bis-5-HT-DTPA(Gd), bis-5-HT-DTPA-^111In, bis-tyramide-DTPA(Gd), and DTPA(Gd)). • 2. LPS/Matrigel experiments (n=3): This model was developed to induce endogeneous mouse MPO secretion and activation. 200 μL total volume Matrigel containing 10% heparin was injected slowly into the thighs of the mice 4 days prior to imaging. The right-sided mixture also contained E. coli lipopolysaccharide (LPS) at 10 μg/mL. One mouse was sacrificed for immunohistochemistry. • 3. Myositis experiments (n=4): LPS at 100 μg/mL in PBS was injected into each mouse intramuscularly in the right flank to produce myositis. The mice are imaged 24 hours after injection.
For normalized signal intensity measured on T1-weighted images, mean±standard deviation (SD) values were calculated in regions of interest (ROI). Contrast-to-noise (CNR) ratios were computed for each ROI according to the formula

[2] = molecular target: T2, endogenous mouse MPO (Mus musculus, UniProt P11247); assay: LPS/Matrigel experiments, MR imaging; assay type: in vivo; settings: mice; LPS/Matrigel
T2 construct: endogenous in cells; host or cells: inflammatory cells recruited by LPS in C57BL6 male mice (Matrigel site in the thigh, or flank muscle myositis)
T2 sequence (P11247 139-718): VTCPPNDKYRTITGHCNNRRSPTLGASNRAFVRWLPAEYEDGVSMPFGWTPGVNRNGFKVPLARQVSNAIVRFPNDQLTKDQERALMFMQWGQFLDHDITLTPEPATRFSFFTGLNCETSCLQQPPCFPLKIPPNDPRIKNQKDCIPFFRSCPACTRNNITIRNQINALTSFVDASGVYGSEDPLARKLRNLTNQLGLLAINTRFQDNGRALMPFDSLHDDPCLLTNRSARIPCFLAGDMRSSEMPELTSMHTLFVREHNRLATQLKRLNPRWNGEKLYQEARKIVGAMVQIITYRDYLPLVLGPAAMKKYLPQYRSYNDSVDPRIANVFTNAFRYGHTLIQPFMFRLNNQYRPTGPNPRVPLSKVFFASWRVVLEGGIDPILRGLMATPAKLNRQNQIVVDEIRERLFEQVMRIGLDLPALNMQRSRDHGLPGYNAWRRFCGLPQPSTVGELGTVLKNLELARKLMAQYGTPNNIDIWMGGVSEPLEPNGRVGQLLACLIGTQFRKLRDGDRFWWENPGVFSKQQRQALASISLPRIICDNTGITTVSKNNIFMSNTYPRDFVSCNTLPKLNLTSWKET
Procedure: as §1
(§2) Ten-week old C57BL6 male mice were obtained from Jackson Laboratories. A total of 22 mice were used for the study. • 1. MPO/Matrigel imaging experiments: Matrigel™ (Beckton-Dickinson), a […] basement membrane matrix gel was used to immobilize human MPO and glucose oxidase (to supply H2O2 required for detecting MPO oxidative activity, Calbiochem). This was chosen to reflect deposits of human MPO in inflamed tissue in a mouse model. 400 μL of a mixture of Matrigel™ and MEM (Cambrex) was injected slowly into the thighs of each mouse one hour prior to imaging. The right thigh mixture also contained 15 U of MPO and 4 U of glucose oxidase (Calbiochem), while the left thigh mixture contained no enzyme and thus serves as an internal control. […]

[3] = molecular target: T2, endogenous mouse MPO; assay: LPS induced myositis, MR imaging at 4.7 T; assay type: in vivo; settings: mice with LPS induced myositis
Procedure: as §1, §2

[4] = Biodistribution of 67Ga tracer; assay type: in vivo, mouse; settings: mice n=4; 6 hours after the injection
Procedure: (§3) SPECT imaging and biodistribution: A solution of 80-100 μCi of [^67Ga]—I in 200 μl of saline were injected intravenously into mice prepared as follows: ten-week old C57BL6 male mice (Jackson Laboratories) were injected with 400 μL of a mixture of Matrigel™ (Beckton-Dickinson) and MEM (Cambrex) into the thighs of each mouse one hour prior to imaging. The right thigh mixture also contained 15 U of MPO and 4 μg of glucose oxidase (Calbiochem), while the left thigh mixture contained no enzyme to serve as an internal control. Glucose oxidase was included to ensure local generation of hydrogen peroxide. The animals were imaged 3 hours after injection on a high resolution X-SPECT/CT system (Gamma Medica). Six hours after injection, the animals were sacrificed and biodistribution was determined in major organs. The % dose accumulated per gram of major organs was determined by using a gamma counter.

[5] = molecular target: T3, MPO (Homo sapiens, UniProt P05164); assay: SPECT/CT imaging of MPO/Matrigel implants with 67Ga tracer; assay type: in vivo, mouse
T3 sequence (P05164 49-745): T1 sequence (P05164 49-745)
Procedure: as §3, with “The animals were imaged 3 hours after injection on a high resolution X-SPECT/CT system (Gamma Medica).” left out
To test our hypothesis in vivo, we prepared an inflammation model in mice. The model consisted in the subcutaneous implantation (1 hour before radiotracer injection) of Matrigel/MPO/GO mixture in the right thigh of each mouse. The left thigh mixture contained no enzyme and served as internal control. Matrigel is a basement membrane matrix gel that can be used for immobilizing human MPO and peroxide-generating enzyme. After injecting [^67Ga]—I intravenously, SPECT/CT imaging was performed 4 hours later.

[6] = molecular target: T4, horseradish peroxidase (HRP) (Armoracia rusticana, UniProt P00433); assay: Ga-3 as oxidoreductase reducing substrate, UV-visible spectra with HRP/H2O2; assay type: biochemical; set-up: purchased Sigma; settings: after approximately 2 hours
T4 sequence (P00433 31-338): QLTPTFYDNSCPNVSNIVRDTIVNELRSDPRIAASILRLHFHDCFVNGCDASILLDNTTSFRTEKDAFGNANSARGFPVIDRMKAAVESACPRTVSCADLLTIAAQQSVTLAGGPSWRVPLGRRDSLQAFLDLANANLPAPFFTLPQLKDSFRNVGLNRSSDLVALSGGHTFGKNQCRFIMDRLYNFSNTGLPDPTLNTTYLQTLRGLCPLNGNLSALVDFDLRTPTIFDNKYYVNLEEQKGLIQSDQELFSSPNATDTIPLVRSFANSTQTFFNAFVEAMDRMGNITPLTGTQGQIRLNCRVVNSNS
Description: (§4) Compound Ga-3 was further tested in vitro as an oxidoreductase reducing substrate. In a preliminary experiment, horseradish peroxidase (HRP), a model oxidoreductase, was used to test the possibility of enzyme-induced oligomerization. […] Well-defined aromatic band centered at 280 nm broadened over the reaction time and extended beyond 330 nm with some residual absorption in the region 350-500 nm. Extension towards the visible range is associated with the extension of the aromatic system as could be expected in the event of oligomerization. After 6 hours no change was observed and the reaction reaches levels close to 90% of conversion after approximately 2 hours. If MPO was used instead of HRP, the obtained results (see FIG. 20C) were similar.

[7] = molecular target: T3, MPO; assay: Ga-3 as oxidoreductase reducing substrate, UV-visible spectra with MPO; assay type: biochemical
Description: as §4

- enhancement of MPO implant compared with control implant [1]: no visual difference or CNR difference
- enhancement of MPO implant compared with control implant ([1]; listed as Magnevist): did not show any difference
- difference in enhancement LPS side vs control [2]: no significant difference in enhancement
- enhancement at 50 minutes after injection [3]: significant wash-out of the enhancement
Structure (SMILES): O=C([O-])CN(CCN(CC(=O)[O-])CC(=O)O)CCN(CC(=O)[O-])CC(=O)O.[Gd+3] [DTPA(Gd), reference compound]

- residual radioactivity in liver [4]: ~1.4%
- residual radioactivity in the bowel [4]: ~7.8%
- residual radioactivity in the rest of the organs [4]: below 0.5%
- difference between right (MPO) and left (control) thigh ([5]; mice, 6 hours after the injection): around 60%
- intensity of MPO implant vs control implant ([5]; mouse SPECT/CT fusion images): higher intensity
Structure (SMILES): CC(=O)N1CCCCCNC(=O)CCC(=O)N2CCCCCNC(=O)CCC(=O)N(CCCCCNC(=O)Cc3c[nH]c4ccc(O)cc34)[O][67Ga]([O]1)[O]2 [[^67Ga]-3]

- conversion [6]: ~90%
- result with MPO compared with HRP [7]: similar
Structure (SMILES): CC(=O)N1CCCCCNC(=O)CCC(=O)N2CCCCCNC(=O)CCC(=O)N(CCCCCNC(=O)Cc3c[nH]c4ccc(O)cc34)[O][Ga]([O]1)[O]2 [Ga-3]
